The text below walks through data of ChEMBL document CHEMBL1137463, “Discovery and structure-activity relationships of new steroidal compounds bearing a carboxy-terminal side chain as androgen receptor pure antagonists” (Bioorg Med Chem Lett, 2007).

The subject of experiment [1] is Mus musculus. The experiment is described as follows: Inhibition of testosterone propionate-stimulated seminal vesicle weight gain in castrated mouse at 10 mg/body, sc. It counts as functional.
Experiment [2] concerns the target T1, Androgen receptor (Homo sapiens) (UniProt P10275).
T1 sequence (whole entry): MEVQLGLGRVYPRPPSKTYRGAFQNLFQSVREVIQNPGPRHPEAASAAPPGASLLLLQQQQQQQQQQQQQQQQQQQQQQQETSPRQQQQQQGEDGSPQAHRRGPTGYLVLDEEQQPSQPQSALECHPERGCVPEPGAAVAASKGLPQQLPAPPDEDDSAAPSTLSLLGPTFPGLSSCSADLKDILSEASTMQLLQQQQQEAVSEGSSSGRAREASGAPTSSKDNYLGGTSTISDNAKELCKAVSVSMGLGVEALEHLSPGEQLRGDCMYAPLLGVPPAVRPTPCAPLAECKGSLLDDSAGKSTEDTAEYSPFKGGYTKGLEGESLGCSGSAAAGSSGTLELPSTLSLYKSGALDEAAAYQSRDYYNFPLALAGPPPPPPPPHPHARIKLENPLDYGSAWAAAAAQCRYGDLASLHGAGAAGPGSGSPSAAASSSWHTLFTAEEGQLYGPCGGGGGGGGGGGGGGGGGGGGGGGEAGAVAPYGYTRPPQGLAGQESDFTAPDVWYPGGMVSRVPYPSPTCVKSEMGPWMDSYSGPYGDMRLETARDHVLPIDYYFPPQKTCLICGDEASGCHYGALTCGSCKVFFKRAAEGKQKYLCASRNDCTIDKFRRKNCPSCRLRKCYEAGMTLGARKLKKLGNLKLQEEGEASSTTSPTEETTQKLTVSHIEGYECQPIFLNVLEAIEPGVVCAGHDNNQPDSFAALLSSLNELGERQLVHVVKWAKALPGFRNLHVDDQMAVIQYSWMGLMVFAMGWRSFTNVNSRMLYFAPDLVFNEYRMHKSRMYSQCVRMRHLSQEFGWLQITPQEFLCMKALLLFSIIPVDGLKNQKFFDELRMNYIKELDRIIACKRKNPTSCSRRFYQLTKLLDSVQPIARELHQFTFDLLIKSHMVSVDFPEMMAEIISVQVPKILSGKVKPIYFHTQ
The following applies: HeLa.
Description: Agonist activity at human androgen receptor expressed in HeLa cells assessed as five times increase in transcriptional activity by reporter gene assay

Experiment [3] concerns Mus musculus. The experiment is described as follows: Inhibition of testosterone propionate-stimulated seminal vesicle weight gain in castrated mouse at 3 mg/body, sc. It counts as functional.
Experiment [4] concerns Mus musculus. The experiment is described as follows: Inhibition of testosterone propionate-stimulated seminal vesicle weight gain in castrated mouse at 1 mg/body, sc. It is filed as functional.
Experiment [5] addresses T2, Androgen receptor (Homo sapiens, UniProt P10275).
T2 sequence (P10275 whole entry): T1 sequence (whole entry)
Description: Antagonist activity at human androgen receptor expressed in HeLa cells assessed as inhibition of dihydrotestosterone induced transcriptional activity by reporter gene assay

For experiment [6], the target named is T2, Androgen receptor. The experiment is described as follows: biochemical.
Description: Displacement of [3H]mibolerone from human androgen receptor expressed in CHOK1 cells

Regarding `CC(C)(O)C(=O)Nc1ccc([N+](=O)[O-])c(C(F)(F)F)c1` [HYDROXYFLUTAMIDE], the Inhibition with Mus musculus [1] was found to be 6.4%; in the experiment with Mus musculus [3] it was 0.8%; in the experiment on Mus musculus [4], 6.7%. For the same compound, the FI5 in experiment [2] stood at 1000 nM.

Regarding `C[C@]12CCC(=O)C=C1C[C@@H](CCCCc1cccc(OCCCCCC(=O)O)c1)[C@@H]1[C@@H]2CC[C@@]2(C)[C@H]1CC[C@]2(C)O`, in experiment [2], the FI5 was more than 10000 nM. Further, the IC50 against Androgen receptor [5] is 0.53 µM; against Androgen receptor [6] it was 0.12 µM.

On to `C[C@]12CCC(=O)C=C1C[C@@H](CCCc1cccc(OCCCC(=O)O)c1)[C@@H]1[C@@H]2CC[C@@]2(C)[C@H]1CC[C@]2(C)O`, for which the FI5 in experiment [2] came to 1500 nM. The concentration for half-maximal inhibition (IC50) against Androgen receptor [5] came to 5.8 µM.

`C[C@]12CCC(=O)C=C1C[C@@H](CCCCc1ccc(OCCCCC(=O)O)cc1)[C@@H]1[C@@H]2CC[C@@]2(C)[C@H]1CC[C@]2(C)O` returned an FI5 in experiment [2] of 2000 nM. Moreover, the values for the 50% inhibitory concentration (IC50) against Androgen receptor [5] and against Androgen receptor [6] were 0.25 µM and 0.096 µM, respectively.

The compound `C[C@]12CCC(=O)C[C@@H]1C[C@@H](CCCCCCCCCC(=O)O)[C@@H]1[C@@H]2CC[C@]2(C)[C@@H](O)CC[C@@H]12` showed an FI5 in experiment [2] of 120 nM. Moreover, the figures for the IC50 on Androgen receptor [5] and on Androgen receptor [6] were 0.92 µM and 0.35 µM, respectively.

For the compound `C[C@]12CCC(=O)C=C1C[C@@H](CCCCCCCCCC(=O)O)[C@@H]1[C@@H]2CC[C@@]2(C)[C@H]1CC[C@]2(C)O`, the FI5 in experiment [2] is more than 10000 nM. The 50% inhibitory concentration (IC50) against Androgen receptor [5] was 2 µM; at Androgen receptor [6], 0.6 µM.

The compound `C[C@]12CCC(=O)C=C1C[C@@H](CCCc1ccc(OCCCC(=O)O)cc1)[C@@H]1[C@@H]2CC[C@@]2(C)[C@H]1CC[C@]2(C)O` came in with an FI5 in experiment [2] of more than 10000 nM. Moreover, the concentration for half-maximal inhibition (IC50) amounted to 0.66 µM against Androgen receptor [5] and 0.43 µM on Androgen receptor [6].

`C[C@]12CCC(=O)C=C1C[C@@H](CCCCc1ccc(OCCCC(=O)O)cc1)[C@@H]1[C@@H]2CC[C@@]2(C)[C@H]1CC[C@]2(C)O`: in experiment [2], the FI5 was determined as 170 nM. The same compound came in with an IC50 against Androgen receptor [5] of 0.85 µM.

Consider `CN(C)C(=O)CCCCCCC[C@@H]1C[C@H]2CC(=O)CC[C@]2(C)[C@H]2CC[C@]3(C)[C@@H](O)CC[C@H]3[C@H]12`, for which the FI5 in experiment [2] was more than 10000 nM. In addition, the IC50 against Androgen receptor [5] is 0.19 µM; at Androgen receptor [6] it was 0.26 µM.

For the compound `C[C@]12CCC(=O)C[C@@H]1C[C@@H](CCCCCCCC(=O)O)[C@@H]1[C@@H]2CC[C@]2(C)[C@@H](O)CC[C@@H]12`, the FI5 in experiment [2] came to 110 nM. In addition, the concentration for half-maximal inhibition (IC50) on Androgen receptor [5] was found to be 0.73 µM; against Androgen receptor [6], 0.66 µM.

Compound `C[C@]12CCC(=O)C=C1C[C@@H](CCCc1ccc(OCCC(=O)O)cc1)[C@@H]1[C@@H]2CC[C@@]2(C)[C@H]1CC[C@]2(C)O` gave an FI5 in experiment [2] of 2500 nM. The half-maximal inhibitory concentration (IC50) amounted to 0.17 µM at Androgen receptor [5] and 0.3 µM at Androgen receptor [6].

The compound `C[C@]12CCC(=O)C=C1C[C@@H](CCCc1ccc(OCCCCC(=O)O)cc1)[C@@H]1[C@@H]2CC[C@@]2(C)[C@H]1CC[C@]2(C)O` yielded an FI5 in experiment [2] of 3200 nM. Also, the IC50 against Androgen receptor [5] was 0.3 µM; against Androgen receptor [6] it was 0.66 µM.

Consider `C[C@]12CCC(=O)C=C1C[C@@H](CCCCc1ccc(OCCCCCC(=O)O)cc1)[C@@H]1[C@@H]2CC[C@@]2(C)[C@H]1CC[C@]2(C)O`, for which the FI5 in experiment [2] turned out to be 100 nM. On Androgen receptor [5], this compound displayed a concentration for half-maximal inhibition (IC50) of 0.42 µM.

As to `C[C@]12CCC(=O)C=C1C[C@@H](CCCCc1cccc(OCCCCC(=O)O)c1)[C@@H]1[C@@H]2CC[C@@]2(C)[C@H]1CC[C@]2(C)O`, in experiment [2], the FI5 is more than 10000 nM. For the same compound, it took 0.35 µM to reach half-maximal inhibition against Androgen receptor [6] (IC50).

Take `C[C@]12CCC(=O)C[C@@H]1C[C@@H](CCCCCCCCC(CCCC(F)(F)C(F)(F)F)C(=O)O)[C@@H]1[C@@H]2CC[C@]2(C)[C@@H](O)CC[C@@H]12` (stereo not given in full): the FI5 in experiment [2] was found to be 13 nM. The half-maximal inhibitory concentration (IC50) is more than 10 µM against Androgen receptor [5] and 0.41 µM against Androgen receptor [6].

`C[C@]12CCC(=O)C=C1C[C@@H](CCCCc1cccc(OCCCC(=O)O)c1)[C@@H]1[C@@H]2CC[C@@]2(C)[C@H]1CC[C@]2(C)O`: the FI5 in experiment [2] was more than 10000 nM. Further, the IC50 was found to be 0.92 µM against Androgen receptor [5] and 0.67 µM at Androgen receptor [6].
